Measurements as given in article PMC6700223 (Frontiers in Microbiology, 2019).

Target: HR1-1 peptide (HR1 domain of LASV GP2) (Lassa virus, UniProt P08669)
Test: biochemical
Assay type: binding

Chain of HR1-1 peptide (HR1 domain of LASV GP2) (P08669 296-345 limits assumed): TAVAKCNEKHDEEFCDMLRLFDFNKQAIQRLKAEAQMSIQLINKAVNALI

## CC[C@H](C)[C@H](NC(=O)[C@H](CC(=O)O)NC(=O)[C@H](CC(=O)O)NC(=O)[C@H](CO)NC(=O)[C@H](Cc1ccccc1)NC(=O)[C@H](Cc1c[nH]cn1)NC(=O)[C@@H](NC(=O)[C@H](CCC(=O)O)NC(=O)[C@H](CC(N)=O)NC(=O)[C@H](CC(C)C)NC(=O)[C@H](Cc1ccc(O)cc1)NC(=O)[C@@H](N)CO)[C@@H](C)O)C(=O)N[C@@H](CCC(=O)O)C(=O)N[C@@H](CCC(N)=O)C(=O)N[C@@H](CCC(N)=O)C(=O)N[C@@H](C)C(=O)N[C@@H](CC(=O)O)C(=O)N[C@@H](CC(N)=O)C(=O)N[C@@H](CCSC)C(=O)N[C@H](C(=O)N[C@H](C(=O)N[C@@H](CCC(=O)O)C(=O)N[C@@H](CCSC)C(=O)N[C@@H](CC(C)C)C(=O)N[C@@H](CCC(N)=O)C(=O)N[C@@H](CCCCN)C(=O)N[C@@H](CCC(=O)O)C(=O)N[C@@H](Cc1ccc(O)cc1)C(=O)N[C@@H](CCSC)C(=O)N[C@@H](CCC(=O)O)C(=O)N[C@@H](CCCNC(=N)N)C(=O)N[C@@H](CCC(N)=O)C(=O)NCC(=O)N[C@@H](CCCCN)C(=O)N[C@H](C(=O)N1CCC[C@H]1C(=O)N[C@@H](CC(C)C)C(=O)O)[C@@H](C)O)[C@@H](C)O)[C@@H](C)CC [HR2-2]
  Binding to HR1-1 peptide (in words): strongly bind
Concentration 3.75 μM
  Response: 0.0341 nm
Concentration 7.5 μM
  Response: 0.0743 nm
Concentration 15 μM
  Response: 0.0958 nm
Concentration 30 μM
  Response: 0.119 nm

## CC[C@H](C)[C@H](NC(=O)[C@H](CC(=O)O)NC(=O)[C@H](CC(=O)O)NC(=O)[C@H](CO)NC(=O)[C@H](Cc1ccccc1)NC(=O)[C@H](Cc1c[nH]cn1)NC(=O)[C@@H](N)[C@@H](C)O)C(=O)N[C@@H](CCC(=O)O)C(=O)N[C@@H](CCC(N)=O)C(=O)N[C@@H](CCC(N)=O)C(=O)N[C@@H](C)C(=O)N[C@@H](CC(=O)O)C(=O)N[C@@H](CC(N)=O)C(=O)N[C@@H](CCSC)C(=O)N[C@H](C(=O)N[C@H](C(=O)N[C@@H](CCC(=O)O)C(=O)N[C@@H](CCSC)C(=O)N[C@@H](CC(C)C)C(=O)N[C@@H](CCC(N)=O)C(=O)N[C@@H](CCCCN)C(=O)N[C@@H](CCC(=O)O)C(=O)N[C@@H](Cc1ccc(O)cc1)C(=O)N[C@@H](CCSC)C(=O)N[C@@H](CCC(=O)O)C(=O)O)[C@@H](C)O)[C@@H](C)CC [HR2-3]
  kon: 1420 M⁻¹ s⁻¹
read-out: Kdis
  koff: 0.0823 s⁻¹
